From patent publication US20130273649A1, “Culture medium for pluripotent stem cells” (UNIVERSITY OF SOUTHERN CALIFORNIA, priority 2012, published 2013)

Legend:
mouse EpiSCs = experiment: Mouse EpiSC self-renewal culture; assay type: cell-based; details: compared to IWR-1, XAV939 and JW55
From the text: We therefore reasoned that if CHIR induces EpiSC differentiation through stabilization of β-catenin, de-stabilization of β-catenin might promote EpiSC self-renewal. We tested this hypothesis by administering the tankyrase inhibitor XAV939 to mouse EpiSC cultures. XAV939-mediated inhibition of tankyrase stabilizes Axin, leading to the formation of the β-catenin destruction complex, composed of GSK3, Axin and adenomatous polyposis coli (APC) (Huang et al., 2009). […] EpiSCs cultured in CHIR/XAV could be routinely passaged by single-cell dissociation and replating onto gelatin-coated dishes, and could be cryo-preserved and recovered at high efficiency by standard techniques.
final concentrations: CHIR99021 (3 μM), PD0325901 (1 μM), XAV939 (Sigma, 2 μM), IWR-1 (Sigma, 2.5 μM), IWP-2 (Stemgent, 2.5 μM), Pyrvinium (Sigma, 100 nM), recombinant human FGF2 (PeproTech, 10 ng/ml), and recombinant human activin A (PeproTech, 10 ng/ml). CHIR99021 and PD0325901 were synthesized in the Division of Signal Transduction Therapy, University of Dundee, UK.
(§1) The basal medium for mouse EpiSC culture is the conventional mouse ESC medium, which consists of GMEM (Sigma) supplemented with 10% fetal bovine serum (FBS) (Hyclone), 2 mM L-glutamine (Invitrogen), 1 mM sodium pyruvate (Invitrogen), 1% nonessential amino acids (Invitrogen), and 0.1 mM (3-mercaptoethanol. Mouse EpiSCs were derived and maintained in the basal medium supplemented with FGF2/activin, CHIR/XAV, or CHIR/IWR-1. The basal medium for rat EpiSC culture is N2B27 (Tong et al., 2011), which was prepared by mixing 500 ml of DMEM/F12 (Invitrogen) with 500 ml of Neurobasal™ medium (Invitrogen), and adding 5 ml of N2 (Invitrogen), 10 ml of B27 (Invitrogen), 5 ml of Glutamax™ (Invitrogen), and 1 ml of 0.1 M β-mercaptoethanol (Sigma). The basal medium for human ESC culture consists of Knockout™ DMEM/F12 supplemented with 20% KSR (Invitrogen), 1% nonessential amino acids, 2 mM L-glutamine, and 0.1 mM (3-mercaptoethanol. Human ESCs were cultured in the basal medium supplemented with FGF2, CHIR/XAV, or CHIR/IWR-1.
Post-implantation epiblasts were isolated from mouse or rat embryos and dissociated into small clumps as previously described (Chenoweth and Tesar, 2010). Epiblast fragments were placed into 4-well plates pre-coated with 0.1% gelatin (for mouse epiblasts) or pre-seeded with γ-irradiated mouse embryonic fibroblasts (MEFs) (for rat epiblasts) and cultured in either the FGF2/activin or the CHIR/XAV conditions. Emerging EpiSCs were trypsinized and expanded every 2-3 days at a subculture ratio of 1:4. Animal experiments were performed according to the investigator's protocols approved by the University of Southern California Institutional Animal Care and Use Committee.

H9 human ESCs = experiment: Human ESC self-renewal culture; assay type: cell-based; details: compared to IWR-1, XAV939 and JW55
From the text: As human ESCs share defining features with mouse EpiSCs (Hanna et al., 2010; Rossant, 2008; Tesar et al., 2007), we tested whether modulating β-catenin function can also promote human ESC self-renewal. […] Next, we examined the effect of CHIR/XAV and CHIR/IWR-1 on human ESC self-renewal. […] Similar results were obtained in H1 and HES3 human ESCs (data not shown). […] Moreover, human ESCs maintained in CHIR/IWR-1 express pluripotency markers Oct4, Nanog and Sox2 (FIG. 7E), and retain the ability to differentiate into cells of all three germ layers, both in vitro and in vivo (FIGS. 7F and 7G).
as §1
H1, H9, HES-2 and HES-3 human ESC lines were kindly provided by the University of Southern California Stem Cell Core Facility. Human ESCs were routinely maintained on γ-irradiated MEF feeders in Knockout™ DMEM medium (Invitrogen) supplemented with 20% Knockout™ serum replacement (KSR; Invitrogen), 10 ng/ml FGF2 (PeproTech), 1% nonessential amino acids, 2 mM L-glutamine, and 0.1 mM β-mercaptoethanol. […]

Wnt pathway = details: relative to IWR-1; cited from earlier work

## O=C1C([C@H]2CC[C@H](C(=O)Nc3cccc4cccnc34)CC2)C(=O)[C@H]2[C@H]3CC[C@H](C3)[C@@H]12 (stereo partly drawn) [53AH, (1R,4r)-4-((2s,3aR,4R,7S,7aS)-1,3-dioxooctahydro-1H-4,7-methanoinden-2-yl)-N-(quinolin-8-yl)cyclohexanecarboxamide]
Mouse EpiSCs
  robustness for long-term expansion of mouse EpiSCs: more robust for long-term expansion
H9 human ESCs
  robustness for long-term expansion of human ESCs: more robust for long-term expansion
Wnt pathway
  potency in Wnt inhibition compared to IWR-1: 5 fold
